Laboratory results taken from patent US12121565B2, “Methods of treatment of specific cancers with NLRP3 inhibitors and anti-PD1/PD-L1 antibodies” (Duke University, priority 2019, dated 2024).

What was measured:
[1] = system: autochthonous BRAFV600E PTEN−/− melanoma model; assay: Autochthonous tumor study: tumor growth, Gr-1 IHC, flow cytometry of tumor-infiltrating cells, serial biopsy qRT-PCR; format: in vivo, mouse
Experimental: B6.Cg-Braf^tm1MmcmPten^tm1Hwu Tg(Tyr-cre/ERT2 H-2^b)13Bos/BosJ transgenic mice were subdermally injected with 4-Hydroxytomoxifen (4-HT) (Sigma, H6278-50MG CCF, 38.75 μg/mouse) to induce primary melanoma development at the base of the tail. Mice were randomly assigned to treatment cohorts once tumor volumes reached 64 mm^3 (19, 30, 50). Depending on the experiment, mice were treated with the following agents: CXCR2 inhibitor (AZD5069, AstraZeneca) at 100 mg/kg per os (po) twice daily, NLRP3 inhibitor (MCC950) 10 mg/kg i.p every other day, anti-PD1 ab (BioXCell) or rat IgG2a isotype control (BioXCell) at 200 μg by i.p. injection every 3 days, Dacarbazine (50 mg/kg or 75 mg/kg, Sigma-Aldrich, D2390) by i.p. injection once every other day. Melanoma growth was monitored by orthogonal caliper measurements every 3 days.
Tumors were resected and mechanically disaggregated by a gentleMACS dissociator (Miltenyi), filtered through 70-μm filters and digested with RPMI containing collagenase IV (1 mg/mL, Sigma-Aldrich), hyaluronidase (0.1 mg/mL, Sigma-Aldrich), and deoxyribonuclease (20 U/mL, Sigma-Aldrich) on a shaker at 250 rpm at 37° C. for 1 hour (23). Resected splenic and lymph node tissues were mechanically disaggregated using 1 cc syringe plunger and 40 μm filters followed by treatment with RBC lysis buffer (Sigma-Aldrich).
Paraffin-embedded tissues were processed and stained following standard protocols and imaged with a Zeiss CLSM 700 confocal microscope. The following antibodies were used in immunohistochemistry and immunofluorescence experiments: anti-Wnt5a (1 μg/ml), anti-Ly6G (0.5 μg/ml), anti-CD8a (0.5 μg/ml) and anti-CXCL5 (1 μg/ml). Tissue was permeabilized by incubation in 0.4% Triton-X in TBS for 20 min. Goat anti-rabbit conjugated to Alexa Fluor 564 and goat anti-mouse Alexa 488 were used as secondary antibodies for the appropriate primary antibody. For immunohistochemistry, anti-rat polymers were used as secondary antibodies and Warp Red chromogen detection system (BioCare, WR806S) was used for antigen visualization.
One million cells were stained with 1 μg per million cells of each fluorochrome conjugated antibodies or commercially available dyes according to the standard protocols and analyzed using a FACSCanto II or LSRII (Becton Dickinson). Cells were stained with Fc receptor blocking antibodies followed by a live/dead discriminator (CellTrace Violet, ThermoFisher, C34571), then by conjugated antibodies for 30 min at 4° C. Cell number was calculated by hemocytometer. Flow cytometry data was analyzed using Flowjo software v10.3.
Total RNA was isolated by RNeasy Plus Mini Kit (Qiagen, 74134). […] All data were normalized to Actb expression, and relative gene expression was quantitated based on the 2_DDCt method.

[2] = system: BRAFV600E PTEN−/− melanoma cell line; assay: In vitro treatment of melanoma cell line followed by Western blot, qRT-PCR, IP, ASC polymerization or ELISA; format: cell-based, mouse
Description: Braf^V600EPten^−/− (male, BPD6 (40)), Braf^V600EPten^−/−-Wnt5a^KD (40), Braf^V600EPten^−/−-CXCL5^KD, Braf^V600EPten^−/−-PDL1^KD, Braf^V600EPten^−/−-NLRP3^KD, OVA-expressing Braf^V600EPten^−/−, BRAF^V600EPTEN^−/−-STAT3^CA, and Braf^V600EPten^−/−-NTC (40) cell lines were generated using shRNA-expressing lentiviral vectors and cultured as previously described (40): shNLRP3 (Sigma, SHCLN-NM_145827), shPDL1 (Sigma, SHCLND-NM_021893), shWnt5a (Sigma, SHCLND-NM_009524), shTLR4 (Sigma, SHCLNG-NM_025817, and pLKO.1-puro empty vector control (NTC) (Sigma, SHC001). Stable cell lines were selected by puromycin resistance (Sigma-Aldrich, P8833). Murine Lewis Lung Carcinoma (LLC) cell line is from ATCC (1704526). All cell lines were tested Mycoplasma-free by Duke University Cell Culture Facility shared services. All Braf^V600EPten^−/− cell lines and the LLC cell line were maintained at 37° C. in DMEM (Invitrogen) with 2 mM L-glutamine, supplemented with 10% fetal bovine serum, 100 units/ml penicillin. Depending on the experiment, cell lines were treated with Wnt5a (100-200 ng/ml, R&D Systems/Bio-techne, 645-WN-010), IFNγ (100 ng/ml, BioAbChem, 42-IFNg), anti-PD-L1 ab (1-2 μg/ml), Hsp70 (1 μM-10 μM, Enzo, ADI-ESP-502-D), Hsp70 inhibitor (ThermoFisher, VER155008), CLI-095 TLR4 inhibitor (3 μM-10 μM, Invivogen, tlrl-cli95), TLR2-IN-C29 TLR2 inhibitor (1 μM-10 μM, Glixx, GLXC-06203), MPLA TLR4 agonist (10 μM, Enzo, ALX-581-205-C100), LPS (Lipopolysaccharide) (10 ng, Sigma-Aldrich, L4391-1MG), ATP (1 mM-5 mM, Invivogen, tlrl-atpl), MCC950 NLRP3 inhibitor (2.5 μM-10 μM, Invivogen, inh-mcc), XAV939 β-catenin inhibitor (0.5-1.0 μM, Sigma-Aldrich, X3004-5MG), 2-Aminopurine PKR inhibitor (1 mM-5 mM, Invivogen, tlrl-apr), Verteporfin YAP inhibitor (0.1 μM-1 μM, R&D Systems/Bio-techne, 530510) or vehicle control either for 24 or 48 hrs prior to in vitro and in vivo experiments. Control siRNA (Santa Cruz, sc-37007). TLR4 siRNA (SantaCruz, sc-40261).
OT-1 CD8 cell activation was performed by incubating isolated splenocytes of OT-1 transgenic mice with IL-2 (100 U/ml) and SIINFEKL peptide (1 μg/ml, New England Peptide, BP10-915) for 3 days followed by magnetic bead CD8 purification according to the manufacturer's instructions (Miltenyi biotec, 130-104-075). Activated OT-1 CD8 cells were incubated with Braf^V600EPten^−/−-OVA cells and treated with anti-PD1 ab (1 μg/ml) for 72 hrs at a tumor cell:CD8^+ T cell ratio of 1:5. In separate experiments, Braf^V600EPten^−/− cells were treated with increasing concentrations of Dacarbazine (10 μmol-400 μmol).
Tumor tissue or cells were homogenized in NP40 lysis buffer (Sigma-Aldrich) supplemented with complete protease inhibitor and phosphatase inhibitor (Roche). Cells were lysed in Laemmli sample buffer after treatment and subjected to SDS-polyacrylamide gel electrophoresis. After transferring onto PVDF membranes (Bio-Rad), monoclonal and polyclonal primary antibodies and appropriate HRP-conjugated secondary antibodies were utilized for blotting. For the immunoprecipitation assays, cells were lysed with TBS buffer (50 mM Tris-HCl (pH 7.4), 150 mM NaCl) containing 0.5% Triton X-100, EDTA-free protease inhibitor cocktail and phosphatase inhibitor cocktail, precleared with protein A/G beads, and then incubated with 1 μg of appropriate antibodies or isotype control IgG on a rotator overnight at 4° C. then incubated with protein A/G-agarose at 4° C. for 1 hour. After 5 washes with TBS buffer, immunoprecipitated complexes were eluted in sample buffer by boiling and subjected to immunoblot analysis. Immunoblots were visualized by chemiluminescence substrate (ThermoFisher) and imaged by a ChemiDoc XRSplus system (BioRad). For the ASC polymerization assay, cells were lysed with TBS buffer containing 0.5% Triton X-100, EDTA-free protease inhibitor cocktail and phosphatase inhibitor cocktail. The lysates were centrifuged at 4,000 g at 4° C. for 15 min. […]

[3] = system: WM266 human melanoma cell line; assay: In vitro treatment of human melanoma cell line followed by Western blot; format: cell-based; conditions: with or without TLR4 inhibitor; in a TLR4-dependent manner
Description: FIG. 7A-G. The PD-L1/NLRP3/HSP70 PMN-MDSC adaptive recruitment pathway in human melanoma. (A) Supernatant HSP70 and caspase-1 p20 Western blot analysis following treatment of human WM266 melanoma cells with IFN-γ with or without anti-PD-L1 Ab. Blots are representative of 3 independent experiments. (B) Wnt5A Western blot analysis of HSP70-treated human WM266 melanoma cells with or without TLR4 inhibitor. Blots are representative of 3 independent experiments. (C) HSP70 and caspase-1 p20 Western blot analysis following treatment of human WM266 melanoma cells with ATP in the absence and presence of MCC950. Blots are representative of 2 independent experiments. (D) Cytolytic T cell markers correlated with ITGAM (CD11B), CD33, and NLRP3 gene expression in the melanoma TCGA-SKCM database. (E) RNA-Seq analysis of human melanoma tissue specimens collected before anti-PD-1 Ab therapy and at the time of disease progression on anti-PD-1 Ab therapy. TPM, transcripts per million. (F) Plasma HSP70 ELISA at week 0 and week 12 in patients with advanced melanoma undergoing anti-PD-1 Ab immunotherapy. (G) Change in HSP70 plasma levels following anti-PD-1 Ab immunotherapy in patients with advanced melanoma who were responders (R) or nonresponders (NR). The response was based on week-12 CT imaging. HSP70 changes were normalized to target tumor burden based on week-12 CT imaging. […]

[4] = system: human melanoma tissue specimens; assay: RNASeq of human melanoma tissue at baseline and during disease progression; format: in vivo; conditions: following disease progression versus baseline
Description: All plasma samples were collected from 17 advanced melanoma patients undergoing anti-PD-1 ab immunotherapy at week 0 and week 12 on an ongoing tissue acquisition protocol investigating checkpoint inhibitor resistance at Duke Cancer Institute (NCT02694965). Three paired tumor specimens obtained at week 0 and at the time of disease progression while undergoing anti-PD-1 ab immunotherapy were collected at Vanderbilt University Medical Center (Institutional Protocol #: 100178). Treatment responses were evaluated based on RECIST (Response Evaluation Criteria in Solid Tumors v1.1).
RNA-seq was performed by Duke Sequencing and Genomic Technologies Shared Resources. A complementary DNA library was prepared via oligo-dT-directed reverse transcription (Ambion) and subjected to deep sequencing on IlluminaHiSeq4000 (50-bp single-read sequencing; Anti-PD-1 resistance Study RNA-seq, accession number: SAMN09878780). RNA-seq data generated here and publicly available RNA-seq data were processed by Duke Center for Genomic and Computational Biology using the TrimGaloretoolkit that uses Cutadapt to trim low-quality bases and Illumina sequencing adapters from the 3′ end of the reads. Only reads that were of 20 nucleotides (nt) or longer after trimming were kept for further analysis. Reads were mapped to the GRCm38v68 version of the mouse genome and transcriptome using the STAR RNA-seq alignment tool. […]

[5] = CXCR2 inhibitor 100 mg/kg po twice daily combined with anti-PD-1 Ab

C[C@@H](Oc1cc(NS(=O)(=O)N2CCC2)nc(SCc2cccc(F)c2F)n1)[C@@H](O)CO [AZD5069] was tested, and the “CD8+ T cell tumor infiltration” value [1, 5] was “enhanced”, the “PMN-MDSC recruitment in response to anti-PD-1 Ab therapy” value [1, 5] was “significantly suppressed” and the tumor progression [1, 5] was “suppressed”. For the same molecule, the “time dependence of impact on tumor volume change rate” value ([1]; correlating with the period of PMN-MDSC influx into the tumor) was “more significant at later time points”.

For “HSP70: recombinant HSP70 (1 μM-10 μM, Enzo, ADI-ESP-502-D)”, the “receptor dependence of HSP70 stimulation of Wnt5a expression” value ([2]; pharmacologic inhibitor and shRNA silencing studies) was “TLR4 dependent”, the “Wnt5a expression after HSP70 stimulation (Western blot)” value ([2]; titrated concentrations, in a dose-dependent manner) was “induced upregulation” and the “Wnt5a upregulation by HSP70” value [3] was “induced”.

In the case of “IL-1β: recombinant IL-1β at titrated concentrations”, the “induction of Wnt5a expression by tumor cells” value ([2]; titrated concentrations of recombinant IL-1β) is reported as “no evidence”.

In the case of “nivolumab: an anti-PD-1 antibody, available from Bristol-Myers Squibb Co”, the “expression of myeloid markers CXCL1, CD33, ITGAM, CXCR2, S00A8 and S00A9” value [4] is reported as “elevated expression”.

B1: rWnt5a: recombinant Wnt5a (100-200 ng/ml, R&D Systems/Bio-techne, 645-WN-010) (protein, UniProt P41221 62-380, looked up)
Protein Wnt-5a: IIGAQPLCSQLAGLSQGQKKLCHLYQDHMQYIGEGAKTGIKECQYQFRHRRWNCSTVDNTSVFGRVMQIGSRETAFTYAVSAAGVVNAMSRACREGELSTCGCSRAARPKDLPRDWLWGGCGDNIDYGYRFAKEFVDARERERIHAKGSYESARILMNLHNNEAGRRTVYNLADVACKCHGVSGSCSLKTCWLQLADFRKVGDALKEKYDSAAAMRLNSRGKLVQVNSRFNSPTTQDLVYIDPSPDYCVRNESTGSLGTQGRLCNKTSEGMDGCELMCCGRGYDQFKTVQTERCHCKFHWCCYVKCKKCTEIVDQFVCK
For B1, the “diminished CXCL5 expression of Wnt5a-knockdown cell line after addition of rWnt5a” value ([2]; BRAFV600E PTEN−/− Wnt5aKD cells, qRT-PCR) was “rescued”, the “YAP stabilization (Western blot)” value ([2]; rWnt5a at various time points) was “induced” and the “Cxcl2, Cxcl5 and Cxcl1 gene expression (qRT-PCR)” value ([2]; rWnt5a versus vehicle control) was “induced”. The “CXCL5 expression (Western blot)” value ([2]; rWnt5a, in a YAP-dependent manner) was “stimulating”.
